The record followed here is ChEMBL document CHEMBL1150001, “A rationale for the design and synthesis of m1 selective muscarinic agonists” (Bioorg Med Chem Lett, 1992).

Where a chain is given by its changes, count along the chain named. pIC50: −log10 of the molar value.

Test [1] has as its target T1, Muscarinic acetylcholine receptor M1 (Homo sapiens, UniProt P11229).
T1 sequence (P11229 whole entry): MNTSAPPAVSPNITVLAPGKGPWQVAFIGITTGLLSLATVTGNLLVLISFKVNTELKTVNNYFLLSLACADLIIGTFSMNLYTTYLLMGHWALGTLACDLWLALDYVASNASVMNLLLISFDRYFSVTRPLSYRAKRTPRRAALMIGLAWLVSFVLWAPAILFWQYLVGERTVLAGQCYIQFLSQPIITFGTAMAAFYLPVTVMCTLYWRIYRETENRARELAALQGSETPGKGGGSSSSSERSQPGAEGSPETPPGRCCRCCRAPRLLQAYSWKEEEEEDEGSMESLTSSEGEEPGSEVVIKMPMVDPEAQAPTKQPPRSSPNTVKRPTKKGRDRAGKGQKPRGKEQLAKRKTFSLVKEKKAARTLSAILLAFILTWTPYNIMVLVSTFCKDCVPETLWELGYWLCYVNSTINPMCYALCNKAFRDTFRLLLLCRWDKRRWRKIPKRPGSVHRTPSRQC
The test is classed as functional, cell-based, CHO.
Description: Inhibitory activity against human Muscarinic acetylcholine receptor M1 using [3H]quinuclidinyl benzilate to label antagonist site (RQNB) in CHO cells

In test [2] the target is Muscarinic acetylcholine receptor. Briefly: Compound was evaluated for inhibition of [3H]cis-methyldioxolane binding to label agonist sites (RCMD) in rat neocortex.
Test [3] has as its target T2, Muscarinic receptor M1 and M2 (Rattus norvegicus, UniProt P08482+P10980).
T2 sequence (P08482 whole entry): T1 sequence (P11229 whole entry) with A5V, T254S, P309S, R320K, A337G, I413V
T2 sequence (P10980 whole entry): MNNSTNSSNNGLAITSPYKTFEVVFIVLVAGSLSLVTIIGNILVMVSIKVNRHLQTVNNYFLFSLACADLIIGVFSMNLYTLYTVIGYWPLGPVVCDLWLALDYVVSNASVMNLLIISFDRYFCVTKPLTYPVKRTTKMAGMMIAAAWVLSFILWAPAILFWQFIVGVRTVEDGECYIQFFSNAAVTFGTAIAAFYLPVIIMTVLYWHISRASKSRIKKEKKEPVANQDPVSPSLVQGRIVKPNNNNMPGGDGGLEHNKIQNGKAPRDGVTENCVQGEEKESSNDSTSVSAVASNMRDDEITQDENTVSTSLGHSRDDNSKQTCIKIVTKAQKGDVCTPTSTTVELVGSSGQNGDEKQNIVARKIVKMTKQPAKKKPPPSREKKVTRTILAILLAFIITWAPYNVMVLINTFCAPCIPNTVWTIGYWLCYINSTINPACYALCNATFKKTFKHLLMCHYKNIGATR
Kind of test: Compound was evaluated for its inhibition of [3H]quinuclidinyl benzilate binding to label antagonist site (RQNB) in rat neocortex.

Test [4] has as its target T3, Muscarinic acetylcholine receptor M2 (Homo sapiens, UniProt P08172).
T3 sequence (P08172 whole entry): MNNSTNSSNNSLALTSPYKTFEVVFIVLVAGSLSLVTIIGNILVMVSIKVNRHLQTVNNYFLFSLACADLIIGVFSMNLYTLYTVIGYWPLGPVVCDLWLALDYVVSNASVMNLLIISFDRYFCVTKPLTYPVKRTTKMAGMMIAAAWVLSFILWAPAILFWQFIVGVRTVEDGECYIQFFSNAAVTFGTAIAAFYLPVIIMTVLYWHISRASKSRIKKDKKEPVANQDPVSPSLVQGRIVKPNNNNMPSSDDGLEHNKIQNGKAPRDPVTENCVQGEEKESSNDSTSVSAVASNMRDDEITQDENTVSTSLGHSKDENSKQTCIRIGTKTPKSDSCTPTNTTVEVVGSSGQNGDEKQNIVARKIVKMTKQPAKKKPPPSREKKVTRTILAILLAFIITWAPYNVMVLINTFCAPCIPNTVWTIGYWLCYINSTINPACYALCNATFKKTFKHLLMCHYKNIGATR
Kind of test: Compound was evaluated for inhibitory activity for Muscarinic acetylcholine receptor M2 using [3H]quinuclidinyl benzilate to label antagonist site (RQNB) in CHO cells. The test is classed as cell-based.

In the case of `CCCC#CCO/N=C1\CN2CCC1C2` (centres undefined), the pIC50 (commonly −log10 of the IC50, conventionally taken in molar units) was 5.02 in test [1] and 4.69 in test [4]. Moreover, the IC50 – broadly, the concentration needed to halve the response being measured – came to 0.048 µM in test [2] and 8.689 µM in test [3].
